Like-named read-outs stand apart in the source and are kept apart here.

Results on six compounds are retold here after article PMC6598400 (Frontiers in Immunology, 2019).

For series [1], the system named is IL-8 production in U937 cells infected with influenza A virus A/PuertoRico/8/1934. The series is described as follows: IL-8 production in influenza-infected U937 cells (AlphaLISA). Format: cell-based, human. The conditions noted are these: read-out: EC50 IL-8.
Series [2] relates to IP-10 production in U937 cells infected with influenza A virus A/PuertoRico/8/1934. As to the kind of experiment: cells. Format: cell-based.
Series [3] concerns MCP-1 production in U937 cells infected with influenza A virus A/PuertoRico/8/1934. The series is described as follows: MCP-1 production in influenza-infected U937 cells (AlphaLISA). Format: cell-based, human. The conditions noted are these: read-out: EC50 MCP-1.
Another series in a line: in vitro. The conditions noted are these: human.
For series [4], the system named is influenza A virus (A/PR/8/34). As to the kind of experiment: Mouse lethal influenza model: survival and body weight. Format: in vivo, BALB/c mice. The conditions noted are these: for Body weight loss: started 2 h after infection; for Survival rate: started 2 h after infection with 500 TCID50, monitored to day 20.
The test system of series [5] is influenza A virus (A/PR/8/34). The series is described as follows: Inflammatory cell infiltration in lungs/BALF of infected mice (histology, flow cytometry). Format: in vivo, BALB/c mice. The conditions noted are these: 15 mg/kg oral from day 3. How it is done:
BALF samples were washed with FACS buffer (10% BSA in PBS). Red blood cells were lysed using ammonium chloride and […] were seeded into a 96-well U-bottom plate. Cells were pre-incubated with anti-FcgRIII/II (Fc block) in FACS buffer before a 30-min incubation with the following fluorochrome-labeled antibodies (Biolegend): PE-Cy7-conjugated Ly6C (clone HK1.4, dilution 1:200), PE-conjugated CD11b (clone M1/70, dilution 1:200), APC-conjugated Ly6G (clone 1A8, dilution 1:200), and FITC-conjugated CD11c (clone N418, dilution 1:100). Cells were washed with phosphate-buffered saline twice and counterstained with 7AAD (Biolegend) to differentiate apoptotic and dead cells and then analyzed using a LSR Fortessa (Becton Dickinson).
Whole lungs were perfused with 10% neutral buffered formaldehyde in situ. Tissues were then fixed overnight in 10% neutral buffered formaldehyde, embedded in paraffin, and sectioned. Lung specimens were stained with hematoxylin and eosin and then subjected to gross and microscopic pathologic analysis.
Mice were infected as described in Figure 2. […] (A) Hematoxylin & eosin-stained mouse lung sections (scale bar 200 μm) harvested at day 7 post-infection. (B) BALFs were collected from placebo and ponatinib-treated mice (n = 3 per group at each time point) starting day 3 post-infection to monitor total cell counts (mean ± SEM) on days 5 and 7 post-infection. The data are representative of at least three independent experiments.*p < 0.05; **p < 0.01.

The test system of series [6] is pro-inflammatory cytokines in BALF. Further details: species or system BALB/c mice. The conditions noted are these: mouse, in vivo.
Series [7] concerns influenza A virus (A/PR/8/34). As to the kind of experiment: Viral titers in BALF of infected mice (TCID50 assay using MDCK cells). Format: in vivo, BALB/c mice.
The test system of series [8] is PR8 strain of influenza virus. The series is described as follows: In vitro antiviral assays in U937, A549 cells and murine PCLS. Format: cell-based.
Series [9] has as its system MCP-1, KC, IP-10 and IL-6 production in PCLS infected with influenza. The series is described as follows: Cytokine production in influenza-infected murine precision-cut lung slices (PCLS). Format: cell-based, mouse.
A further series has as its system phospho-p38. Format: cell-based, human.
Another series has as its system IFN-α. The series is described as follows: IFN-α levels in influenza virus-infected U937 cells. Format: cell-based, human.
The conditions of series [10]: cited from earlier work.
Setting [11] is: Homo sapiens, U-937, PR8 MOI = 0.1, 48 h.
The mark [12] stands for this setting: U937 cells, PR8 MOI = 0.1, 48 h.

As to `Cc1ccc2nc(NCCN)c3ncc(C)n3c2c1` [BMS-345541], the EC50 in [1] (Homo sapiens, U-937, 48 h) stood at 11.7 µM; in series [2] (setting [11]), 4.6 µM; in [3] (Homo sapiens, U-937, 48 h), 3.6 µM. The same compound had a CC50 in “in vitro” of 3.9 µM.
Regarding `Cc1cn(-c2cc(NC(=O)c3ccc(C)c(Nc4nccc(-c5cccnc5)n4)c3)cc(C(F)(F)F)c2)cn1` [Nilotinib], the EC50 in series [1] (Homo sapiens, U-937, 48 h) worked out at 0.4 µM; in series [2] (setting [11]), 1.1 µM; in series [3] (Homo sapiens, U-937, 48 h), 1.5 µM. In addition, in the series “in vitro”, the CC50 amounted to 5.4 µM.
On to `CC(C)(C)n1nc(-c2ccc(Cl)cc2)c2c(N)ncnc21` [PP2], for which the EC50 in series [1] (setting [12]) was more than 100 µM; in series [2] (PR8 MOI = 0.1, 48 h) it was 3.3 µM; in series [3] (setting [12]) it was 10.4 µM. Also, in the series with U937 cells, the CC50 was 40.3 µM.
Take `Cc1ccc(C(=O)Nc2ccc(CN3CCN(C)CC3)c(C(F)(F)F)c2)cc1C#Cc1cnc2cccnn12` [Ponatinib]: the concentration for a half-maximal effect (EC50) in series [1] (Homo sapiens, U-937, 48 h) is 0.3 µM. Further, the concentration giving a half-maximal response (EC50) in series [3] (Homo sapiens, U-937, 48 h) was found to be 0.4 µM. In addition, in series [4] (5 mg/kg/d oral), the Body weight loss entry is listed as “improvement in body weight loss decreased significantly compared to the middle dose group” and the Survival rate is on record as 20%. Further, the “Body weight loss, delayed administration” value in [4] (15 mg/kg oral, started on days 1, 2, 3 or 4 post-infection until day 6) is given as “slowed down significantly”. Moreover, the “Survival rate, delayed administration” value in series [4] (15 mg/kg oral, started on days 3 and 4 post-infection until day 6) was “higher survival rates than those treated starting on days 1 and 2”. The Survival rate in [4] (15 mg/kg/d oral) is 50%. For the same compound, the Body weight loss entry in [4] (15 mg/kg/d oral, days 3 to 5) is “least decline in body weight”. Further, in series [4] (25 mg/kg/d oral), the Body weight loss entry is “improvement of body weight loss was not observed at all” and the Survival rate was determined as 30%. The “Inflammatory infiltrates in the lungs (histology)” value in [5] (day 7 post-infection, vs placebo) is listed as “fewer inflammatory infiltrates”. In addition, in series [5] (days 5 and 7 post-infection), the “Infiltration of neutrophils in BALF” value is listed as “greatly reduced” and the “Monocyte infiltration in BALF” value was “not affected”. For the same compound, in series [6], the “Concentrations of IL-6, IL-10, MCP-1, Eotaxin, IL-12 (p40) and MIP-1β in BALF” value was “not affected”; the “Expression levels of cytokines and chemokines in BALF (of 17 increased by infection)” value was 14 cytokines and chemokines were attenuated; the “IFN-α levels in BALF vs placebo” value was “higher on day 3 and lower on day 5 post-infection”; the “Inhibition of cytokines in BALF except IL-6 and CCL-5, late phase” value is on record as “minor”. In [6], the “Inhibition of cytokines in BALF, early phase” value is reported as “no cytokines were inhibited”; the “Levels of Eotaxin, G-CSF, MCP-1, IL-10, TNF-α and IP-10 in BALF” value is “elevated”; the “Levels of type I IFNs in BALF and serum” value is “reduce the levels of type I IFNs”; the “Production of cytokines and chemokines in BALF” value is 8 cytokines and chemokines was reduced. In series [7] (15 mg/kg oral from day 0 (simultaneously with infection)), the “Viral titers in BALF vs placebo” value was “significantly higher at day 3 and slightly higher at day 7”. Also, the “Virus titers in BALF vs placebo” value in series [7] (15 mg/kg oral from day 3, days 5 and 7 post-infection) was “no difference”. The “Replication of PR8 influenza virus in vitro” value in series [8] is recorded as “did not inhibit the replication”. The “MCP-1, KC, IP-10 and IL-6 productions in infected PCLS” value in series [9] is listed as “dose-dependently”. Besides, the “Phosphorylation of p38” value in the series with phospho-p38 is reported as “downregulated”. The “Levels of IFN-α” value with IFN-α is given as “downregulate”. In addition, the “Median time to first onset of pancreatitis” value in series [10] (clinical trials) is on record as 14 days. Besides, in [10] (patients, long-term treatment), the “Median time to initial onset of arterial occlusive events” value was 13.4 months.
Regarding `CNC(=O)c1cc(Oc2ccc(NC(=O)Nc3ccc(Cl)c(C(F)(F)F)c3)cc2)ccn1` [Sorafenib], the EC50 in series [1] (Homo sapiens, U-937, 48 h) worked out at 0.7 µM; in series [2] (setting [11]) it was 3.7 µM; in series [3] (Homo sapiens, U-937, 48 h), 5.8 µM. The CC50 in “in vitro” came out at 20.7 µM.
Regarding `Nc1cccc(-c2cc3c(Oc4cccc(O)c4)ncnc3[nH]2)c1` [TWS119], the concentration giving a half-maximal response (EC50) in [1] (setting [12]) stood at 9 µM; in [2] (PR8 MOI = 0.1, 48 h) it was 8.5 µM; in series [3] (setting [12]), 8 µM. In the series with U937 cells, this compound registered a CC50 of 5.4 µM.
